Data set [1] concerns SkMel-28 cells. The data set can be described thus: MTT cell proliferation assay, SkMel-28. Conditions: for IC50: SK-MEL-28, 120 h. It counts as cell-based, human. As for the experimental part:
(§1) Four human cancer cells lines (SkMel-28, MCF7, H1264 and Caco-2) were obtained from the American Type Tissue Culture Collection (ATCC) and were maintained in appropriate culture mediums supplemented with 10% fetal calf serum (FCS) and antibiotics, under standard tissue culture conditions (e.g. modified Eagle's medium (MEM) containing 1 mM sodium pyruvate and 10% fetal bovine serum (FES) under 5% CO2/95% air atmosphere.). Cell injury was evaluated by a colorimetric assay for mitochondrial function using the 3-(4,5-dimethylthiazolyl-2)-2,5-diphenyltetrazolium bromide (MTT) cell proliferation assay. For this assay cells were plated in a 96-well plate at a density of 1000 cells/well and grown until they reached 50-60% confluence. Human epidermal melanocytes (HeM) were supplied by Gentaur and were cultured in HAM-F10 medium supplemented with 10% FCS, antibiotics and the human melanocyte growth supplement (Gentaur).
Cell injury was evaluated by a colorimetric assay for mitochondrial function using the 3-(4,5-dimethylthiazolyl-2)-2,5-diphenyltetrazolium bromide (MTT) cell proliferation assay. For this assay cells were plated in a 96-well plate at a density of 1000 cells/well and grown until they reached 30% confluence. Co-treatments of SkMel-28 cells with TMECG and other reagents were carried out by supplementing medium cultures with S-adenosylmethionine (SAM), adenosine or dipyridamole (all from Sigma).
For orientation: Formazan colour is commonly taken as a measure of viable cells.

Data set [2] deals with T1, rHDHFR (Homo sapiens, UniProt P00374).
T1 construct: purchased Sigma
T1 sequence (P00374 1-187): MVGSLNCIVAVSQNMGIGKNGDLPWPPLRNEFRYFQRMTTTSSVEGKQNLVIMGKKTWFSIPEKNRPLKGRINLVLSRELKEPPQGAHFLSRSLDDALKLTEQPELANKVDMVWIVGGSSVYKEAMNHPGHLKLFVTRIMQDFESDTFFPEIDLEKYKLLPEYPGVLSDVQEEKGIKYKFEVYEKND
The data set can be described thus: rHDHFR inhibition, progress curves. It counts as biochemical. The note with it: for Decrease % further EI reactions: decrease of KI to KI* by further EI-complex reactions; for Ki: overall (effective) inhibition constant, read-out: KI*. As for the experimental part: The experiments were carried out in the same buffer as fluorescence experiments in the presence of NADPH (100 μM), DHF (10 μM), and rHDHFR (1.5 nM).
(§2) The activity of rHDHFR was determined at 25° C. by following the decrease in the absorbance of NADPH and DHF at 340 nm (ε=11800 M-1 cm−1) (Stone and Morrison, 1986). Progress curves were obtained under ordered conditions ([NADPH]>>[DHF]). rHDHFR inhibition constants were calculated as described by Navarro-Perán et al., 2005b. The dissociation constant for the binding of inhibitors to free rHDHFR was determined at 25° C. by fluorescence titration in an automatic-scanning Perkin-Elmer LS50B spectrofluorimeter. Fluorescence emission spectra were recorded when rHDHFR fluorescence was excited at 290 nm. Stopped-flow fluorescence experiments were carried out using an Applied Photophysics Ltd. Pi-Star 180 spectrometer with a stopped-flow unit at 25° C.

Data set [3] concerns the target T1, rHDHFR. The data set can be described thus: rHDHFR binding: fluorescence titration and stopped-flow fluorescence. The note with it: for koff: calculated from KI=koff/kon; for Ki: dissociation constant, free rHDHFR, fluorescence titration; for Ki / kon: pH 7.4, 25° C.; for kon: stopped-flow fluorescence. As for the experimental part:
The experiments were carried out in a buffer containing 2-(N-morpholino)ethanesulfonic acid (Mes, 0.025 M), sodium acetate (0.025 M), tris-(hydroxymethyl)aminomethane (Tris 0.05 M), and NaCl (0.1 M) at pH 7.4 and 25° C. in the presence of QM and rHDHFR (0.5 μM).
Stopped-flow fluorescence experiments were carried out at pH 7.4 and 25° C. using an enzyme concentration of 0.25 μM. The reaction of rHDHFR with inhibitors was observed under pseudo-first order conditions by fluorescence at 340 nm (excitation at 290 nm). The data points s are the means of at least 3 (normally 5) repeat observations±SD. […] Aliquots (20 μl) of the incubation mixture was then diluted 50-fold into a reaction mixture containing the buffer, NADPH (100 μM), and DHF (10 μM) to give a final enzyme concentration of 1.5 nM.
as §2

The test system of a further data set is Caco-2 cells. As to the kind of experiment: MTT cell proliferation assay, Caco-2. The class given is cell-based, human. The note with it: Caco-2. As for the experimental part:
as §1

Data set [4] deals with B16/F10 melanoma cell tumours. The data set can be described thus: Primary tumour model, B16/F10 melanoma in C57/B16 mice. It counts as in vivo, mouse. From the text:
Translational therapy was then designed to probe the efficacy of this combination on mice induced melanoma tumor. Injection of 5×10^5 B16/F10 melanoma cells in the back of C57/B16 mice formed a blackish tumor mass, which in untreated control mice reached to a tumor area of 3.7±0.7 and 9.3±1.1 cm2 in female and male, respectively, after 21 days of cells inoculation.

Data set [5] relates to SkMel-28 cells. The data set can be described thus: Microscopy of melanosome melanin content. The class given is cell-based, human. Conditions: treated SkMel-28 versus untreated. As for the experimental part:
Confluent monolayers of SkMel-28 were harvested with a mixture of 0.05% trypsin, 0.53 mmol/L EDTA and washed once in 0.25 mol/L sucrose by centrifugation at 700×g for 5 min at 4° C. They were then homogenized on ice using 20 strokes of an ice-cold Dounce homogenizer and centrifuged at 700×g for 10 min at 4° C. The resultant postnuclear supernatant was centrifuged at 17,000×g for 15 min at 4° C. to yield a melanosome-enriched granular fraction (17). This fraction was resuspended in 0.5-2 ml of ice-cold 0.25 mol/L sucrose, 10 mmol/L HEPES, pH 7.0 and fixed for 1 h at room temperature in 2% glutaraldehyde, 2% paraformaldehyde in 0.1 mol/L sodium cacodylate buffer, pH 7.3. The fixative was then removed and the samples stored in PBS containing 4% sucrose at 4° C. Samples were subsequently dehydrated with graded alcohols and embedded in epoxy resin. This section were stained with uranyl acetate and lead citrate and examined with a Zeiss EM10 electron microscope.

The next data set concerns MAT2A. Conditions: cited from earlier work.
Data set [6] relates to 4T1 mice breast cancer cell line. As to the kind of experiment: 4T1 breast cancer model in Balb/c mice. The class given is in vivo, mouse. The note with it: 40 mg/Kg/d intraperitoneally, Balb/c female mice. As for the experimental part:
The 4T1 mice breast cancer cell line (ATCC) was used for tumour implantation. This cell line is highly metastatic and after its injection on the back of the Balb/c mice it expanded to the lungs forming metastasis in this organ. Initial experiments were designed for injection in the back to follow tumour growth and lung metastasis.
We treated 6 Balb/c female mice were treated intraperitoneally with TMCG (40 mg/Kg/d) and compared with 6 untreated (control) mice.

Another data set deals with T2, human tyrosinase (Homo sapiens, UniProt P14679).
T2 sequence (P14679 19-529): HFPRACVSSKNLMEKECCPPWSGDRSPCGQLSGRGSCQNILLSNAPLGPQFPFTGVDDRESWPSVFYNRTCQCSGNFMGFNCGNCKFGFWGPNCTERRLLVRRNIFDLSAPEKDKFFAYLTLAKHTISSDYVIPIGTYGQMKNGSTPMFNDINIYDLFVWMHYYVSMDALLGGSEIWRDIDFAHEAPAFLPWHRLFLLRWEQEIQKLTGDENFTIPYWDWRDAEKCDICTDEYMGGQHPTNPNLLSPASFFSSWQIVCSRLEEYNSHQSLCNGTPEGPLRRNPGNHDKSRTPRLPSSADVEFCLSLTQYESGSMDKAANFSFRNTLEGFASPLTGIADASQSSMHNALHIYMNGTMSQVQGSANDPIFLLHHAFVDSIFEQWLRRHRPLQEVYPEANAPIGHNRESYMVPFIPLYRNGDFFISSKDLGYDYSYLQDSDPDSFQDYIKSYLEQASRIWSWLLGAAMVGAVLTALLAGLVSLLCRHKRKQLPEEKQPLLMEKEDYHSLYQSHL
Conditions: recombinant human tyrosinase (Kong et al., 2000); read-out: Michaelis-Menten constant (Km), value reported; cited from earlier work.

The subject of data set [7] is Caco-2 and SkMel-28 cells. As to the kind of experiment: Cellular uptake of ECG, TMECG and QM. It counts as in vitro ADME, human. The note with it: 50 μM catechins. As for the experimental part: Cellular uptake was determined by the difference between the initial concentration of catechin and the calculated at specific times in the cellular medium, and expressed as a percentage of catechin at zero time. The values presented are the mean percentage determined from five independent experiments±SD.
For cellular uptake experiments Caco-2 and SkMel-28 cells were grown until reaching 90% confluence. Then, 20 ml of cellular medium containing 50 μM catechins and 0.2 mM ascorbic acid was added and incubated for 60 h in a CO2 incubator. At specified times 1 ml-aliquots were taken and frozen in liquid N2 until the catechin concentrations were determined by HPLC. Catechins were identified by their characteristic elution times and their concentration calculated with respect to calibration curves of known concentrations of catechins.

Data set [8] in a line: pH dependence of absorbance and stability of the tyrosinase product. The class given is physicochemical.
Text: We studied the oxidation of TMECG by tyrosinase at pH 5.5. […] The initial formation of o-Q was confirmed by including reducing agents such as ascorbic acid or NADPH in the reaction medium. […] The pH transition might represent the equilibrium between the protonated form (QMH) and the deprotonated form (QM^−), a species which is stabilized by resonance and FIG. 9E represents the possible abundance of QM species in different melanocyte compartments.

Where two headings read alike, the source gives them in different places.

For the compound `Nc1ncnc2c1ncn2[C@@H]1O[C@H](CO)[C@@H](O)[C@H]1O` [Adenosine, adenosine], the “effect of adenosine alone on SkMel-28 growth” value with SkMel-28 cells [1] (up to 500 μM) is on record as “had not any detectable effect”.
For the compound “epicatechin-3-gallate [ECG, reference compound]”, at rHDHFR [2], the “Decrease % further EI reactions” value is on record as 19 −fold and the inhibition constant Ki worked out at 92 nM. Moreover, at rHDHFR [3], the koff was 0.30 s⁻¹, the affinity corresponds to a Ki of 1780 nM and the kon worked out at 170000 M⁻¹ s⁻¹.
As to `Oc1cc(O)c2c(c1)O[C@H](c1ccc(O)c(O)c1)[C@H](O)C2` [EC, Epicatechin, reference compound], the “effect of natural and synthetic catechins on Caco-2 growth” value in the data set on Caco-2 cells is recorded as “no detectable activity”.
Consider `OCCN(CCO)c1nc(N2CCCCC2)c2nc(N(CCO)CCO)nc(N3CCCCC3)c2n1` [Dipyridamole, dipyridamole, reference compound], for which the “effect on tumor growth” value in data set [4] (females, DIPY 10 mg/Kg/d alone) was “had not visible effects on tumor growth”. Also, the “effect of single treatments” value in data set [4] (male mice) was “not effective”. Moreover, the IC50 in the data set on SkMel-28 cells [1] (Homo sapiens, dipyridamole alone, SkMel-28, read-out: IC50 (at 5 days)) was 20000 nM; in the data set with SkMel-28 cells [1] (Homo sapiens, in the presence of 50 μM TMECG, SkMel-28, read-out: IC50 (at 5 days) in the presence of TMECG), under 1000 nM.
In the case of `CN(Cc1cnc2nc(N)nc(N)c2n1)c1ccc(C(=O)N[C@@H](CCC(=O)O)C(=O)O)cc1` [MTX, methotrexate], the melanosome melanin content result in the data set on SkMel-28 cells [5] is “much less melanin content”. Also, in the data set on SkMel-28 cells [1] (100 μM leucovorin, MTX 1 μM or TMECG 50 μM, 3 days), the “effect of leucovorin co-treatment on growth inhibition” value is listed as “effectively reversed this inhibition”. Besides, the inhibition at 1 µM in the data set with SkMel-28 cells [1] (Homo sapiens, SK-MEL-28, 72 h, 1 μM, 3 days, SkMel-28, read-out: growth inhibited) amounted to 70%. Further, the “effect of sulfasalazine (RFC inhibitor) on antiproliferative action” value with SkMel-28 cells [1] (sulfasalazine 0.5 mM, MTX 0.2 μM or TMECG 10 μM, 3 days) is reported as “inhibited the antiproliferative action of MTX”.
As for `C[S+](CC[C@H](N)C(=O)O)C[C@H]1O[C@@H](n2cnc3c(N)ncnc32)[C@H](O)[C@@H]1O` (stereo partly shown) [SAM, S-adenosylmethionine, reference compound], the half-maximal inhibitory concentration (IC50) with MAT2A (Sullivan and Hoffman, 1983, read-out: IC50 for inhibition of MAT2) was 60000 nM. Further, in the data set with SkMel-28 cells [1] (SAM alone), the “effect of SAM alone on SkMel-28 growth” value is given as “Only high amount of SAM (up to 100 μM) affected SkMel-28 growth”.
As to `COc1cc(C(=O)O[C@H]2Cc3c(O)cc(O)cc3O[C@@H]2c2ccc(O)c(O)c2)cc(OC)c1OC` [TMCG, 3-O-(3,4,5-Trimethoxybenzoyl)-(−)-Catechin], in data set [6], the “growth of metastases (lung tumor volume)” value is “slower growth of metastases”.
In the case of `O=C(O[C@@H]1Cc2c(O)cc(O)cc2O[C@@H]1c1cc(O)c(O)c(O)c1)c1cc(O)c(O)c(O)c1` [EGCG, reference compound], at rHDHFR [2], the “Decrease % further EI reactions” value is 28 −fold and the Ki amounted to 33 nM. For the same compound, at rHDHFR [3], the dissociation rate constant (koff) was 0.12 s⁻¹, the Ki is 920 nM and the kon is 130000 M⁻¹ s⁻¹.
As for `N[C@@H](Cc1ccc(O)c(O)c1)C(=O)O` [L-dopa], the Michaelis-Menten constant (Km) on human tyrosinase was 360 µM.
`CSCC[C@H](N)C(=O)O` [methionine]: the Km with MAT2A is 4 to 10 µM.
On to `COc1cc(C(=O)O[C@H](Cc2c(O)cc(O)cc2O)C(=O)c2ccc(O)c(O)c2)cc(OC)c1OC` [QM], for which, in data set [7], the “cellular uptake / membrane transport” value is reported as “limited degree of cell membrane diffusion”. Moreover, on rHDHFR [2], the “Decrease % further EI reactions” value is 0 −fold and the inhibitory constant (Ki) was found to be 8.2 nM. At rHDHFR [3], the “reversibility of binding to rHDHFR” value is “essentially irreversible” and the inhibition constant Ki was determined as 8.2 ± 0.11 nM. Further, the koff on rHDHFR [3] (read-out: koff) was 0.00048 s⁻¹. Further, the on-rate constant (kon) at rHDHFR [3] (read-out: kon) was determined as 58000 M⁻¹ s⁻¹. For the same compound, the stability entry in data set [8] is “high stability over a wide pH range”. In addition, the pKa in [8] (absorbance at 470 nm vs pH, read-out: pKa of ionisable group) came out at 6.9 ± 0.1.

What is called Ki is the equilibrium dissociation constant of an inhibitor or competing ligand from its target. Broadly, the koff is the first-order rate constant of dissociation. The term kon denotes the second-order rate constant of association. A word on the IC50: it is the concentration at which inhibition is half-maximal. As a reminder, the Km is the substrate concentration at which the rate is half of its maximum. As a reminder, the pKa is the negative logarithm of the acid dissociation constant.

The record behind these values is patent US9060997B2, “Antifolate compounds for the treatment of melanoma” (UNIVERSIDAD DE MURCIA, priority 2007, dated 2015).
